From publication PMC4742142, “Identification of novel, in vivo active Chk1 inhibitors utilizing structure guided drug design” (Oncotarget, 2015)

How the values were obtained:
[1] = tested on: HCT116; test: Potentiation assay (MTS, 72 hours); type: cell-based, human; settings: IC50(cytotoxic agent alone) / IC50(combination treatment)
Method: (§1) 5 × 10^3 cells per well were seeded in 96-well plates and incubated overnight. […] The effect on cell proliferation was determined using a CellTiter 96 AQueous One Solution Cell Proliferation Assay (MTS, Promega).

[2] = tested on: PC3; test: Potentiation assay (MTS, 72 hours); type: cell-based, human; settings: IC50(cytotoxic agent alone) / IC50(combination treatment)
Method: as §1

[3] = tested on: H460; test: Potentiation assay (MTS, 72 hours); type: cell-based, human; settings: IC50(cytotoxic agent alone) / IC50(combination treatment)
Method: as §1

[4] = tested on: SW620; test: Potentiation assay (MTS, 72 hours); type: cell-based, human; settings: IC50(cytotoxic agent alone) / IC50(combination treatment)
Method: as §1

[5] = tested on: HT29; test: Potentiation assay (MTS, 72 hours); type: cell-based, human; settings: IC50(cytotoxic agent alone) / IC50(combination treatment)
Method: as §1

[6] = tested on: Colo205; test: Potentiation assay (MTS, 72 hours); type: cell-based, human; settings: IC50(cytotoxic agent alone) / IC50(combination treatment)
Method: as §1

[7] = tested on: A549; test: Potentiation assay (MTS, 72 hours); type: cell-based, human; settings: IC50(cytotoxic agent alone) / IC50(combination treatment)
Method: as §1

[8] = tested on: NCI-H520; test: Potentiation assay (MTS, 72 hours); type: cell-based, human; settings: IC50(cytotoxic agent alone) / IC50(combination treatment)
Method: as §1

[9] = biological target: T1, Chk1 (Homo sapiens, UniProt O14757); test: In vitro kinase assay, Chk1; type: biochemical; settings: for LE: ligand efficiency, Chk1
T1 sequence (O14757 1-476): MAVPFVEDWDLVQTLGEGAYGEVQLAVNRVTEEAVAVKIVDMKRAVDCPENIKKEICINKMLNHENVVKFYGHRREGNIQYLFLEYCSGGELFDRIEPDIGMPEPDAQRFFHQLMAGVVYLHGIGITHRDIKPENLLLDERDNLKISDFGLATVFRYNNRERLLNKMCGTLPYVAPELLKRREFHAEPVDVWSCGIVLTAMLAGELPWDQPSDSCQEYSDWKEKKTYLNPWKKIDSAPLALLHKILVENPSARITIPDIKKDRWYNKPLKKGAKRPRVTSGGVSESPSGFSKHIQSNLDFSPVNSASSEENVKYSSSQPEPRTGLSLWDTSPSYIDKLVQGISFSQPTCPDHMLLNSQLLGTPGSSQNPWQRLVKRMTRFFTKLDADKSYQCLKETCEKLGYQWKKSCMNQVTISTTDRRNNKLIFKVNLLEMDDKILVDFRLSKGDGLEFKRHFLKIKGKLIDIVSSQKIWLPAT
Method: Kinase assays were performed as previously described.

[10] = tested on: SW620 xenograft; test: SW620 xenograft antitumor efficacy; settings: for Median TTE: SW620, 100 mg/kg irinotecan alone (V158411 0 mg/kg); for %TGD / T-C: SW620, 100 mg/kg irinotecan alone
Excerpt: (§2) Xenograft studies were undertaken by Charles River Laboratories Discovery Services, North Carolina. On the day of tumor cell implant, Colo205 cells were harvested and resuspended in 50% Matrigel matrix (BD Biosciences) in PBS at a concentration of 5 × 10^6 cells/mL. Each test mouse received 1 × 10^6 Colo205 cells implanted subcutaneously (SC) in the flank of female athymic nude mice (HRLN or NCr nu/nu), and tumor growth was monitored as the average size approached 100-150 mm^3. The SW620 tumor line was maintained by serial SC transplantation in female athymic nude mice (HRLN nu/nu). Tumor fragments, approximately 1 mm^3 each, were implanted SC into the right flank of each animal and allowed to grow towards a target size of 100-150 mm^3. On day 1 of the study, tumors were randomized into treatment groups before compound administration.
(§3) V158411 was formulated in D5W and administered via IV injection into the tail vein. Cyclic treatment regimens were followed and treatment ranged from 2-3 cycles.
(§4) Tumor size was measured with electronic calipers and tumor volume calculated according to the formula ((width × width) × length) /2.
(§5) The study endpoint was defined as a tumor volume of 750 mm^3 for Colo205 or 1500 mm^3 for SW620, or day 60, whichever came first. Each animal was euthanized when its' tumor reached this endpoint. The time to endpoint (TTE) for each mouse was calculated from the equation TTE = (log10(endpoint volume)-b)/m where b is the intercept and m the slope of the line obtained by linear regression of a log-transformed tumor growth data set.

[11] = tested on: Colo205 xenografts; test: Colo205 xenograft antitumor efficacy; type: in vivo; settings: Colo205, 75 mg/kg IP irinotecan alone (V158411 0 mg/kg)
Excerpt: as §2, §3, §4, §5

| Compound | IC50 [9] | Fold Potentiation by V158411 (400nM) [1] | Fold Potentiation by V158411 (400nM) [2] | Fold Potentiation by V158411 (400nM) [3] | Fold Potentiation by V158411 (400nM) [4] | Fold Potentiation by V158411 (400nM) [5] | Fold Potentiation by V158411 (400nM) [6] | Fold Potentiation by V158411 (400nM) [7] | Fold Potentiation by V158411 (400nM) [8] | other results |
| --- | --- | --- | --- | --- | --- | --- | --- | --- | --- | --- |
| CCc1c2c(nc3ccc(O)cc13)-c1cc3c(c(=O)n1C2)COC(=O)[C@]3(O)CC [SN38] |  | 1.3 fold | > 10 fold | 1.0 fold | 7.6 fold | 18.7 fold | > 10 fold |  |  |  |
| N.N.[Cl][Pt][Cl] [Cisplatin] |  | 0.6 fold | 1.7 fold | 0.7 fold | 2.5 fold | 10.1 fold | 5.3 fold | 0.8 fold | 1.9 fold |  |
| Nc1ccn([C@@H]2O[C@H](CO)[C@@H](O)C2(F)F)c(=O)n1 [Gemcitabine] |  | 1.5 fold | 6.7 fold | 4.5 fold | 3.0 fold | 27.1 fold | 8.4 fold | 4.5 fold | 8.9 fold |  |
| CC[C@@]1(O)C(=O)OCc2c1cc1n(c2=O)Cc2cc3ccccc3nc2-1 [Camptothecin] |  | 0.8 fold | 6.3 fold | 0.8 fold | 10.6 fold | 11.4 fold | 6.0 fold | 0.7 fold | 1.8 fold |  |
| CCc1c2c(nc3ccc(OC(=O)N4CCC(N5CCCCC5)CC4)cc13)-c1cc3c(c(=O)n1C2)COC(=O)[C@]3(O)CC [Irinotecan, reference compound] |  |  |  |  |  |  |  |  |  | Median TTE ([10]; study with 30 mg/kg V158411, endpoint 1500 mm^3): 24.1 days; Median TTE ([10]; study with 60 mg/kg V158411, endpoint 1500 mm^3): 24.1 days; %TGD ([10]; study with 30 mg/kg V158411): 81%; T-C ([10]; study with 30 mg/kg V158411): 10.8; %TGD ([10]; study with 60 mg/kg V158411): 75%; T-C ([10]; study with 60 mg/kg V158411): 10.3; %TGD [11]: 78%; T-C [11]: 15.5; Median TTE ([11]; q7d 3 cycles, endpoint 750 mm^3): 35.4 days |

More lines, main results first:

| IC50 [9] | Compound | Fold Potentiation by V158411 (400nM) [1] | Fold Potentiation by V158411 (400nM) [2] | Fold Potentiation by V158411 (400nM) [3] | Fold Potentiation by V158411 (400nM) [4] | Fold Potentiation by V158411 (400nM) [5] | Fold Potentiation by V158411 (400nM) [6] | Fold Potentiation by V158411 (400nM) [7] | Fold Potentiation by V158411 (400nM) [8] | other results |
| --- | --- | --- | --- | --- | --- | --- | --- | --- | --- | --- |
| ~100 µM | O=c1[nH]cccc1-c1nc2ccccc2[nH]1 [VER-154637] |  |  |  |  |  |  |  |  | LE [9]: > 0.30 |
| 0.0076 µM | O=C(Nc1c[nH]c(=O)c(-c2cc3ccccc3[nH]2)c1)c1cnn(Cc2ccccc2)c1 [VER-155991] |  |  |  |  |  |  |  |  | increase in potency ([9]; Chk1 IC50, inversion of the amide linker, versus VER-155422): 2 fold |
| 0.017 µM | O=C(Nc1cnn(Cc2ccccc2)c1)c1c[nH]c(=O)c(-c2cc3ccccc3[nH]2)c1 [VER-155422] |  |  |  |  |  |  |  |  | LE [9]: 0.35 |
| > 400 µM | Cn1cc(NC(=O)c2c[nH]c(=O)c(-c3cc4ccccc4[nH]3)c2)cn1 [VER-155175] |  |  |  |  |  |  |  |  | Chk1 IC50 [9]: disappointing affinity |
| 4.2 µM | CCNC(=O)c1c[nH]c(=O)c(-c2cc3ccccc3[nH]2)c1 [VER-154931] |  |  |  |  |  |  |  |  | Chk1 IC50 [9]: low μM inhibitor |
